Measured values as given in PMC6449538, “Antimicrobial Activity of Selected Antimicrobial Peptides Against Planktonic Culture and Biofilm of Acinetobacter baumannii” (Probiotics and Antimicrobial Proteins, 2018).
Values after ≈ are worked out from the molar mass of the structure shown. Read-outs that look alike come from different tables or passages of the source. Where no end group is shown, it is not given here.

Columns and labels:
A. baumannii ATCC 19606 = test: microbe, parasite or virus in culture; assay type: cell-based, Acinetobacter baumannii
Method: (§1) The A. baumannii ATCC 19606 strain was acquired from the American Type Culture Collection and prepared in line with the manufacturer’s instructions. The culture was stored in Roti®-Store Cryo-Vials (Carl Roth GmbH, Karlsruhe, Germany) at − 20 °C. Before the tests, the bead with cryo-protected bacteria was transferred into fresh MHB (Biocorp, Warsaw, Poland) and incubated for 24 h at 37 °C. Then, the culture was seeded on MHA plates and incubated as just mentioned. The agar cultures prepared in this way were used for further experiments. Cell densities for all assays were adjusted spectrophotometrically (Multiskan™ GO Microplate Spectrophotometer, Thermo Scientific) at 600 nm.
The MICs and MBCs were determined with the reference to the Clinical and Laboratory Standards Institute guidelines. MICs were determined by broth microdilution method. For this purpose, initial inoculums of bacteria (0.5 × 10^5 CFU/mL) in MHB were exposed to a series of concentrations (0.5–256 μg/mL) of the compounds and incubated for 18 h at 37 °C. The experiments were conducted on 96-well microtiter polystyrene plates with the final volume of 100 μL. The MIC was taken as the lowest drug concentration at which a noticeable growth of microorganisms was inhibited. In parallel, the MIC wells, two above and one below (positive control), were cultured on a MHA plate. […] All experiments were conducted in triplicate.

[1] = tested on: A. baumannii ATCC 19606 biofilm; assay type: cell-based, Acinetobacter baumannii
Method: as §1
The antibiofilm activity was determined on 96-well flat-bottomed microtiter polystyrene plates and 0.5-cm fragments of tracheal tubes (RIM-75, ZARYS International Group, Zabrze, Poland), with resazurin (7-hydroxy-3H-phenoxazin-3-one 10-oxide) as a cell viability reagent. The first part included assay on 96-well plates. To do this, the plates were filled with 100 μL of the initial inoculums of bacteria (0.5 × 10^7 CFU/mL) in the MHB and incubated for 24 h at 37 °C. Then, the wells were rinsed three times with PBS to remove non-adhered cells and the fresh medium with a series of concentrations (0.5–256 μg/mL) of the compounds was added. After 24 h of incubation, 20 μL of resazurin (4 mg/mL) was added to each well and the MBEC values were read. The assay on tracheal tube fragments was conducted using 24-well polystyrene plates. Briefly, the tracheal tube fragments were dipped in 1 mL of the bacterial inoculum (0.5 × 10^7 CFU/mL) and incubated at 37 °C. After 24 h of incubation, the test fragments were rinsed three times with PBS and transferred into other wells containing the fresh medium with a series of concentrations of the test compounds. Subsequently, the plates were incubated again for 24 h at 37 °C. Then, 200 μL of resazurin was added and the MBEC was read. All experiments were conducted in triplicate.

[2] = Acinetobacter baumannii, ATCC19606, MIC wells cultured on MHA plate, 24 h at 37 °C, no visible growth, triplicate, read-out: MBC
[3] = Acinetobacter baumannii, ATCC19606, broth microdilution (CLSI), MHB, inoculum 0.5 × 10^5 CFU/mL, 18 h at 37 °C, polystyrene 96-well plates, triplicate, read-out: MIC
[4] = 24 h biofilm on 0.5-cm tracheal tube fragments, 24 h treatment at 37 °C, resazurin read-out, triplicate
[5] = 24 h biofilm on polystyrene 96-well plates, 24 h treatment at 37 °C, resazurin read-out, triplicate
[6] = MIC wells cultured on MHA plate, 24 h at 37 °C, no visible growth, triplicate
[7] = broth microdilution (CLSI), MHB, inoculum 0.5 × 10^5 CFU/mL, 18 h at 37 °C, polystyrene 96-well plates, triplicate

Compound	MBC (A. baumannii ATCC 19606; [2]) [µg/mL]	MIC (A. baumannii ATCC 19606; [3]) [µg/mL]	MBEC^tt [1, 4] [µg/mL]	MBEC^tt ([1]; 24 h biofilm on 0.5-cm tracheal tube fragments, 24 h treatment at 37 °C, resazurin read-out, triplicate, listed as piperacillin)	MBEC [1, 5]	MIC (A. baumannii ATCC 19606; ATCC 19606, 18 h) [µg/mL]	MBC (A. baumannii ATCC 19606; ATCC 19606, 24 h) [µg/mL]	MBEC ([1]; ATCC 19606, 24 h) [µg/mL]	MBEC^tt ([1]; ATCC 19606, 24 h) [µg/mL]	MBC (A. baumannii ATCC 19606; [6]) [µg/mL]	MIC (A. baumannii ATCC 19606; [7]) [µg/mL]
CCN1CCN(C(=O)N[C@@H](C(=O)N[C@@H]2C(=O)N3[C@@H]2SC(C)(C)[C@@H]3C(=O)O)c2ccccc2)C(=O)C1=O [Piperacillin, reference compound]	128 (≈ 247 µM)	64 (≈ 124 µM)	> 512	failed to eradicate the biofilm at any concentration	failed to eradicate the biofilm at any concentration						
GIGKFLKKAKKFGKAFVKILKK-NH2 [Pexiganan]						2	4	256	32		
O=C(O)c1cn(C2CC2)c2cc(N3CCNCC3)c(F)cc2c1=O [Ciprofloxacin, reference compound]	1 (≈ 3.02 µM)		1		2 µg/mL						
CNC(C)C1CCC(N)C(OC2C(N)CC(N)C(OC3OCC(C)(O)C(NC)C3O)C2O)O1 (stereo not drawn) [Gentamicin, reference compound]	32 (≈ 67 µM)	16 (≈ 33.5 µM)	32		32 µg/mL						
KWKLFKKIGAVLKVL-NH2 [CAMEL]			64		128 µg/mL					4	2
KRRWPWWPWRLI-NH2 [r-Omiganan]						16	16	256	128		
GLFDIIKKIAESF-NH2 [Aurein 1.2]			32		64 µg/mL					16	16
FLPLIGRVLSGIL-NH2 [Temporin A]						128	128		256		
CN(C)[C@@H]1C(O)=C(C(N)=O)C(=O)[C@@]2(O)C(O)=C3C(=O)c4c(O)cccc4[C@@](C)(O)[C@H]3C[C@@H]12 [Tetracycline, reference compound]	4 (≈ 9 µM)	2 (≈ 4.5 µM)	4		16 µg/mL						
CO[C@H]1/C=C/O[C@@]2(C)Oc3c(C)c(O)c4c(O)c(c(/C=N/N5CCN(C)CC5)c(O)c4c3C2=O)NC(=O)/C(C)=C\C=C\[C@H](C)[C@H](O)[C@@H](C)[C@@H](O)[C@@H](C)[C@H](OC(C)=O)[C@@H]1C [Rifampicin, reference compound]	4 (≈ 4.86 µM)	4 (≈ 4.86 µM)	4		8 µg/mL						
CC[C@H]1OC(=O)[C@H](C)[C@@H](O[C@H]2C[C@@](C)(OC)[C@@H](O)[C@H](C)O2)[C@H](C)[C@@H](O[C@@H]2O[C@H](C)C[C@H](N(C)C)[C@H]2O)[C@](C)(O)C[C@@H](C)C(=O)[C@H](C)[C@@H](O)[C@]1(C)O [Erythromycin, reference compound]	32 (≈ 43.6 µM)	32 (≈ 43.6 µM)	16		32 µg/mL						
ILRWPWWPWRRK-NH2 [Omiganan]						32	64	256	128		
GLFDVIKKVASVIGGL-NH2 [Citropin 1.1]						16	16	256	32		
